Results taken from patent US10106526B2, “Inhibitors of cyclin-dependent kinase 7 (CDK7)” (SYROS PHARMACEUTICALS, INC., priority 2014, dated 2018).

Experiments:
[1] = test system: A673 cells; test: Inhibition of proliferation of A673 cells (CyQUANT, 72 hour); format: cell-based, human; conditions: 72 hour proliferation
Protocol: A673 cells are a cell line derived from human muscle Ewing's sarcoma. Representative compounds of the invention were tested at different concentrations (from 4 μM to 126.4 pM; 0.5 log serial dilutions) for their ability to inhibit the proliferation of A673 cells. Known CDK inhibitors flavopiridol and triptolide were used as positive controls. Cells were grown in Dulbecco's Modified Eagle's Medium, +10% FBS+1 mM Sodium Pyruvate. The cells were cultured at 37° C. in a humidified chamber in the presence of 5% CO2. Proliferation assays were conducted over a 72 hour time period. CyQUANT® (Life Technologies, Chicago, Ill. USA) was used to assess the anti-proliferative effects of the compounds following manufacturer's directions and utilizing the reagents supplied with the CyQUANT® kit. In this table, “A” represents an IC50 of less than 500 nM; “B” an IC50 of between 500 nM and 5 μM; and “C” an IC50 of greater than 5 μM.

[2] = biological target: CDK7/Cyclin H/MAT1 trimeric complex (Homo sapiens, UniProt P50613); test: CDK7 kinase assay, Caliper/LabChip EZ Reader (Biortus Biosciences); format: biochemical; conditions: CDK7/Cyclin H/MAT1 10 nM, ATP 2 mM, FAM-CDK7tide 2 μM, 30 min incubation, read-out: CDK7 Inhibition (IC50)
Chain of CDK7/Cyclin H/MAT1 trimeric complex (P50613 whole entry): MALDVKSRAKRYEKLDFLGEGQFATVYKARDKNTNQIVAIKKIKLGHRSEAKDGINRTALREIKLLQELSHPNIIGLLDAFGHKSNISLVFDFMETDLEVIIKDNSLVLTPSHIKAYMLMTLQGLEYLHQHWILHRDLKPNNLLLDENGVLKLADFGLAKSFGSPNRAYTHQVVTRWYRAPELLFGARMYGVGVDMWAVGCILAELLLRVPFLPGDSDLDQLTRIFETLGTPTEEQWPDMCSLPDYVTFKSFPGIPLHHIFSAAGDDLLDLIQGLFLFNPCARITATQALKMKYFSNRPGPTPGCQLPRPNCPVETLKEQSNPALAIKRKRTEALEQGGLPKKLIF
Chain of CDK7/Cyclin H/MAT1 trimeric complex (P51946 whole entry partner): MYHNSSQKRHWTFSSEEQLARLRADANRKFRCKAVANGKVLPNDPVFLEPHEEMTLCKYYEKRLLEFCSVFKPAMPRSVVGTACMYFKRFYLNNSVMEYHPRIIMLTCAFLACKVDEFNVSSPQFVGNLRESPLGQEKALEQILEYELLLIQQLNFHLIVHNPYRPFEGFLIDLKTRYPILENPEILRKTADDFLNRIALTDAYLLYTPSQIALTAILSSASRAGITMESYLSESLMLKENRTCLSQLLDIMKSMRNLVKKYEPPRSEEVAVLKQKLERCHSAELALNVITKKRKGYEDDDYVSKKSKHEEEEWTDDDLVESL
Chain of CDK7/Cyclin H/MAT1 trimeric complex (P51948 whole entry partner): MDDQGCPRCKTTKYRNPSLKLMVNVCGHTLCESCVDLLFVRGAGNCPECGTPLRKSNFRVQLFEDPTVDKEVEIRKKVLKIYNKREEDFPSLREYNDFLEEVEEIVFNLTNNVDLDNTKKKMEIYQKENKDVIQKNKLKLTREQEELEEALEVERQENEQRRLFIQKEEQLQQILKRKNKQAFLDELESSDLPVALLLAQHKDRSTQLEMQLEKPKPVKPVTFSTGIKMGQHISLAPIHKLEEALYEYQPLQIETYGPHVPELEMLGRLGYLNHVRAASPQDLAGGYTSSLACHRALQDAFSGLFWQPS
Protocol: Compounds of the invention were further assayed for CDK7 activity at Biortus Biosciences (Jiangyin, Jiangsu Province, P.R. of China) using a CDK7 kinase assay developed with a Caliper/LabChip EZ Reader (Perkin Elmer, Waltham, Mass.). […] The incubation period was chosen such that the total fraction of phosphorylated peptide product produced was <20% for the uninhibited kinase.

[3] = test system: Jurkat cells; test: Inhibition of proliferation of Jurkat cells (CellTiter-Glo, 72 hour); format: cell-based, human; conditions: Homo sapiens, 10 μM to 316 pM
Protocol: Jurkat cells are a cell line established from a human T cell leukemia. Representative compounds of the invention were tested at different concentrations (from 10 μM to 316 pM; 0.5 log serial dilutions) for their ability to inhibit the proliferation of Jurkat cells. Known CDK inhibitors flavopiridol and triptolide were used as positive controls. Cells were grown in RPMI 1640+10% FBS+1% Glutamax. The cells were supplemented with FBS (Life Technologies) and 100 U·mL^− penicillin, 100 μg·mL^− streptomycin (Invitrogen) and cultured at 37° C. in a humidified chamber in the presence of 5% CO2. Proliferation assays were conducted over a 72 hour time period. CellTiter-Glo® (Promega Corporation, Madison, Wis. USA) was used to assess the anti-proliferative effects of the compounds following manufacturer's directions and utilizing the reagents supplied with the CellTiter-Glo® kit. In this table, “A” represents an IC50 of less than 500 nM; “B” an IC50 of between 500 nM and 5 μM; and “C” an IC50 of greater than 5 μM.

[4] = biological target: T1, CDK7 (Homo sapiens, UniProt P50613); test: CDK7 kinase activity, Adapta kinase assay (Life Technologies); format: biochemical; conditions: Adapta kinase assay at Life Technologies; 10 μM down to 0.514 nM, 3-fold serial dilutions; read-out: CDK7 Inhibition (IC50)
T1 construct: purchased Life Technologies (Adapta kinase assay service)
T1 sequence (P50613 whole entry): as the sequence (P50613 whole entry) above
T1 sequence (P51946 whole entry partner): as the sequence (P51946 whole entry partner) above
T1 sequence (P51948 whole entry partner): as the sequence (P51948 whole entry partner) above
Protocol: Compounds of the invention were assayed for CDK7 activity at Life Technologies™ (Grand Island, N.Y.) using their commercially available Adapta® kinase assay services. Compounds were tested at concentrations ranging from 10 μM down to 0.514 nM in a series of 3-fold serial dilutions. Details of these assays, including substrates used, are available on the Life Technologies web site (http://www.lifetechnologies.com/us/en/home/life-science/drug-discovery/target-and-lead-identification-and-validation/kinasebiology/kinase-activity-assays.html).

SMILES | IC50 [2] [nM] | IC50 [3] [nM] | IC50 [4] [nM] | IC50 ([1]; Homo sapiens) [nM] | IC50 [1] [nM]
CCc1cnc(N[C@@H]2CCC[C@](C)(NC(=O)c3ccc(NC(=O)/C=C/CN(C)C)cn3)C2)nc1-c1c(C)[nH]c2ccccc12 [Compound 412, 5-[[(E)-4-(dimethylamino)but-2-enoyl]amino]-N-[(1S,3R)-3-[[5-ethyl-4-(2-methyl-1H-indol-3-yl)pyrimidin-2-yl]amino]-1-methyl-cyclohexyl]pyridine-2-carboxamide] | 100 to 1000 |  |  | < 500 | 
CN(C)C/C=C/C(=O)N1CCN([C@H]2CCC[C@@H](Nc3ncc(Cl)c(C4C(=O)Nc5ccccc54)n3)C2)CC1 (stereo partly drawn) [Compound 293, 3-(5-chloro-2-(((1R,3S)-3-(4-((E)-4-(dimethylamino)but-2-enoyl)piperazin-1-yl)cyclohexyl)amino)pyrimidin-4-yl)indolin-2-One] | 100 to 1000 |  |  | < 500 | 
CN(C)C/C=C/C(=O)N1CCCC(N2CC(Nc3ncc(Cl)c(-c4c[nH]c5ccccc45)n3)C2)C1 (stereo not shown) [compound 389] | > 1000 |  |  |  | < 500
C=CC(=O)N1CCN([C@H]2CCC[C@@H](Nc3ncc(Cl)c(-c4c[nH]c5c(OC)cccc45)n3)C2)CC1 [compound 395] | 100 to 1000 |  |  |  | < 500
C=CC(=O)NC1CC2CCC(C1)N2C1CCCC(Nc2ncc(Cl)c(-c3c[nH]c4ccccc34)n2)C1 (mixture of isomers) [Compound 259] | 100 to 1000 |  |  |  | < 500
C=CC(=O)N1CCN(C2CCCC(Nc3ncc(Cl)c(-c4c[nH]c5ccccc45)n3)C2)C(C)C1 (stereo not shown) [Compound 257] | 100 to 1000 |  |  |  | < 500
C=CC(=O)N1CCN([C@H]2CCC[C@@H](Nc3ncc(Cl)c(-c4cnc5ccccn45)n3)C2)CC1 [Compound 414, 1-[4-[(1S,3R)-3-[(5-chloro-4-imidazo[1,2-a]pyridin-3-yl-pyrimidin-2-yl)amino]cyclohexyl]piperazin-1-yl]prop-2-en-1-One] | 100 to 1000 |  |  | < 500 | 
C=CC(=O)N1CCN([C@H]2CCC[C@@H](Nc3ncc(Cl)c(-c4c[nH]c5ccc(OC)cc45)n3)C2)CC1 [Compound 375, 1-(4-((1S,3R)-3-(5-chloro-4-(5-methoxy-1H-indol-3-yl)pyrimidin-2-ylamino)cyclohexyl)piperazin-1-yl)prop-2-en-1-One] | > 1000 |  |  | < 500 | 
C=C(F)C(=O)Nc1ccc(C(=O)N[C@H]2CCC[C@@H](Nc3ncc(Cl)c(-c4c[nH]c5ccccc45)n3)C2)nc1 [compound 402] | 100 to 1000 |  |  |  | < 500
CN(C)C/C=C/C(=O)N1CC(F)(F)C[C@H]1C(=O)N[C@H]1CCC[C@@H](Nc2ncc(Cl)c(-c3c[nH]c4ccccc34)n2)C1 [compound 394] | < 100 |  |  |  | < 500
C=CC(=O)Nc1ccc(CN[C@H]2CCC[C@@H](Nc3ncc(Cl)c(-c4c[nH]c5ccccc45)n3)C2)nc1 [Compound 258] | < 100 |  |  | < 500 | 
C=CC(=O)N1CC(F)(F)C[C@H]1C(=O)N[C@H]1CCC[C@@H](Nc2ncc(Cl)c(-c3n[nH]c4ccccc34)n2)C1 [compound 391] | < 100 |  |  |  | < 500
Cc1cnc(N[C@@H]2CCC[C@H](NC(=O)c3ccc(NC(=O)/C=C/CN(C)C)cn3)C2)nc1-c1c[nH]c2ccccc12 [Compound 265, N-((1S,3R)-3-((4-(1H-indol-3-yl)-5-methylpyrimidin-2-yl)amino)cyclohexyl)-5-((E)-4-(dimethylamino)but-2-enamido)picolinamide] | < 100 |  |  | < 500 | 
C=CC(=O)N1CCC(C(=O)N2CC[C@@H](Nc3ncc(Cl)c(-c4c[nH]c5ccccc45)n3)C2)CC1 [Compound 214, 1-[4-[(3R)-3-[[5-chloro-4-(1H-indol-3-yl)pyrimidin-2-yl]amino]pyrrolidine-1-carbonyl]-1-piperidyl]prop-2-en-1-One] |  | > 5000 | 100 to 1000 | < 500 | 

Second part, led by results:

IC50 [2] [nM] | IC50 [3] [nM] | IC50 [4] [nM] | SMILES | IC50 ([1]; Homo sapiens) [nM] | IC50 [1] [nM]
< 100 |  |  | CN(C)C/C=C/C(=O)Nc1ccc(C(=O)N[C@@]2(C)CCC[C@@H](Nc3ncc(Cl)c(-c4c[nH]c5ccccc45)n3)C2)nc1 [Compound 267, N-((1S,3R)-3-(5-chloro-4-(1H-indol-3-yl)pyrimidin-2-ylamino)-1-methylcyclohexyl)-5-((E)-4-(dimethylamino)but-2-enamido)picolinamide] | < 500 | 
< 100 |  |  | CN(C)C/C=C/C(=O)N(C)c1ccc(CN[C@H]2CCC[C@@H](Nc3ncc(Cl)c(-c4c[nH]c5ccccc45)n3)C2)nc1 [Compound 390, (E)-N-(6-((((1S,3R)-3-((5-chloro-4-(1H-indol-3-yl)pyrimidin-2-yl)amino)cyclohexyl)amino)methyl)pyridin-3-yl)-4-(dimethylamino)-N-methylbut-2-enamide] | < 500 | 
< 100 |  |  | CN(C)C/C=C/C(=O)Nc1ccc(C(=O)N[C@@]2(C)CCC[C@@H](Nc3ncc(C(F)(F)F)c(-c4c[nH]c5ccccc45)n3)C2)nc1 [Compound 399, 5-[[(E)-4-(dimethylamino)but-2-enoyl]amino]-N-[(1S,3R)-3-[[4-(1H-indol-3-yl)-5-(trifluoromethyl)pyrimidin-2-yl]amino]-1-methyl-cyclohexyl]pyridine-2-carboxamide] | < 500 | 
< 100 |  |  | CN(C)C/C=C/C(=O)Nc1ccc(CN[C@H]2CCC[C@@H](Nc3ncc(Cl)c(-c4c[nH]c5ccccc45)n3)C2)nc1 [Compound 261] | < 500 | 
< 100 |  |  | C=CC(=O)N1CCN([C@H]2CCC[C@@H](Nc3ncc(Cl)c(-c4nnc5ccccn45)n3)C2)CC1 [Compound 344, 1-(4-((1S,3R)-3-((4-([1,2,4]triazolo[4,3-a]pyridin-3-yl)-5-chloropyrimidin-2-yl)amino)cyclohexyl)piperazin-1-yl)prop-2-en-1-One] | < 500 | 
< 100 |  |  | C=C(F)C(=O)N1CCN([C@H]2CCC[C@@H](Nc3ncc(Cl)c(-c4c[nH]c5ccccc45)n3)C2)CC1 [compound 401] |  | < 500
< 100 |  |  | CN(C)C/C=C/C(=O)Nc1ccc(CN[C@@]2(C)CCC[C@@H](Nc3ncc(Cl)c(-c4c[nH]c5ccccc45)n3)C2)nc1 [Compound 294, (E)-N-(6-(((1S,3R)-3-(5-chloro-4-(1H-indol-3-yl)pyrimidin-2-ylamino)-1-methylcyclohexylamino)methyl)pyridin-3-yl)-4-(dimethylamino)but-2-enamide] | < 500 | 
< 100 |  |  | CN(C)C/C=C/C(=O)N1CC(F)(F)C[C@H]1C(=O)N[C@H]1CCC[C@@H](Nc2ncc(Cl)c(-c3n[nH]c4ccccc34)n2)C1 [compound 404] |  | < 500
< 100 |  |  | C=CC(=O)N1CCN(C2CCCC(Nc3ncc(Cl)c(-c4c[nH]c5ccccc45)n3)C2)C(C)C1 (stereo not shown) [Compound 260] |  | < 500
< 100 |  |  | CCc1cnc(N[C@@H]2CCC[C@](C)(NCc3ccc(NC(=O)/C=C/CN(C)C)cn3)C2)nc1-c1c[nH]c2ccccc12 [Compound 411, (E)-4-(dimethylamino)-N-[6-[[[(1S,3R)-3-[[5-ethyl-4-(1H-indol-3-yl)pyrimidin-2-yl]amino]-1-methylcyclohexyl]amino]methyl]-3-pyridyl]but-2-enamide] | < 500 | 
< 100 |  |  | C=CC(=O)Nc1cnc(CN[C@H]2CCC[C@@H](Nc3ncc(Cl)c(-c4n[nH]c5ccccc45)n3)C2)nc1 [compound 405] |  | < 500
< 100 |  |  | C=CC(=O)N1CCC[C@@H](NCc2ccc(Nc3ncc(Cl)c(-c4c[nH]c5ccccc45)n3)cc2)C1 [compound 393] |  | < 500
< 100 |  |  | CCc1cnc(N[C@@H]2CCC[C@](C)(NC(=O)c3ccc(NC(=O)/C=C/CN(C)C)cn3)C2)nc1-c1c[nH]c2ccccc12 [Compound 407, 5-[[(E)-4-(dimethylamino)but-2-enoyl]amino]-N-[(1S,3R)-3-[[5-ethyl-4-(1H-indol-3-yl)pyrimidin-2-yl]amino]-1-methyl-cyclohexyl]pyridine-2-carboxamide] | < 500 | 
